Measured values reported in US20070128217A1 (priority 2003, published 2007).

Tests used:
[1] = tested on: recombinant human anti-SARS-CoV antibody 03-018; format: binding; set-up: Binding of antibody 03-018 to linear peptides of the N protein of SARS-CoV Urbani / Binding of antibody 03-018 to looped/cyclic peptides of the N protein of SARS-CoV Urbani: unit not given here
[2] = tested on: antibodies in sera from SARS patients (sera 1a, 1b, 2, 6, 37, 62, London, SARS-yellow, SARS-green); format: binding, human; set-up: Binding of serum 6 to linear peptides of protein X1 of SARS-CoV Urbani / Binding of serum 37 to linear peptides of protein X1 of SARS-CoV Urbani / Binding of serum 6 to looped/cyclic peptide (PEPSCAN-ELISA) / Binding of serum 37 to looped/cyclic peptide (PEPSCAN-ELISA) / Binding of serum 37 to looped/cyclic peptides of protein X1 of SARS-CoV Urbani / Binding of serum 6 to linear peptides of protein X2 / Binding of serum 37 to linear peptides of protein X2 / Binding of serum 37 to looped/cyclic peptides of protein X2 of SARS-CoV Urbani / Binding of serum 6 to linear peptides of protein M of SARS-CoV Urbani / Binding of serum 37 to linear peptides of protein M of SARS-CoV Urbani / Binding of serum 6 to looped/cyclic peptides of protein M of SARS-CoV Urbani / Binding of serum 37 to looped/cyclic peptides of protein M of SARS-CoV Urbani / Binding of serum 6 to linear peptides of protein X3 of SARS-CoV Urbani / Binding of serum 37 to linear peptides of protein X3 of SARS-CoV Urbani / Binding of serum 37 to looped/cyclic peptides of protein X3 of SARS-CoV Urbani / Binding of serum 6 to linear peptides of protein X4 of SARS-CoV Urbani / Binding of serum 37 to linear peptides of protein X4 of SARS-CoV Urbani / Binding of serum 37 to looped/cyclic peptides of protein X4 of SARS-CoV Urbani / Binding of serum 6 to linear peptides of protein X5 of SARS-CoV Urbani / Binding of serum 37 to linear peptides of protein X5 of SARS-CoV Urbani / Binding of serum 37 to looped/cyclic peptides of protein X5 of SARS-CoV Urbani / Binding of serum 6 to linear peptides of protein N of SARS-CoV Urbani / Binding of serum 37 to linear peptides of protein N of SARS-CoV Urbani / Binding of serum 6 to linear peptide (PEPSCAN-ELISA) / Binding of serum 1a to looped/cyclic peptides of protein N of SARS-CoV Urbani / Binding of serum 1b to looped/cyclic peptides of protein N of SARS-CoV Urbani / Binding of serum 2 to looped/cyclic peptides of protein N of SARS-CoV Urbani / Binding of serum 6 to looped/cyclic peptides of protein N of SARS-CoV Urbani / Binding of serum 37 to looped/cyclic peptides of protein N of SARS-CoV Urbani / Binding of serum 62 to looped/cyclic peptides of protein N of SARS-CoV Urbani / Binding of serum London to looped/cyclic peptides of protein N of SARS-CoV Urbani / Binding of serum SARS-green to looped/cyclic peptides of protein N of SARS-CoV Urbani: unit not given here
[3] = tested on: control sera (pooled serum of ten healthy LUMC hospital workers; commercial negative donor pooled serum from the Dutch bloodbank); format: binding, human; set-up: Binding of Control serum LUMC to linear peptides / Binding of Control serum Blood-bank to linear peptides / Binding of Control serum LUMC to looped peptides / Binding of Control Serum Blood-Bank to Looped peptides / Binding of Control serum LUMC to linear peptides of the protein M of SARS-CoV Urbani / Binding of Control serum Blood-bank to linear peptides of the protein M of SARS-CoV Urbani / Binding of Control serum LUMC to looped peptides of the protein M of SARS-CoV Urbani / Binding of Control Serum Blood-Bank to Looped peptides of the protein M of SARS-CoV Urbani: unit not given here
[4] = tested on: rabbit serum obtained by immunizing a rabbit with the SARS-CoV strain Frankfurt 1; format: binding; set-up: Binding of a rabbit serum to linear peptides / Binding of a rabbit serum to looped peptides / Rabbit serum linear peptides / Rabbit serum looped peptides / Binding of a rabbit serum to linear peptides of protein N of SARS-CoV Urbani (Rabbit serum linear peptides) / Binding of a rabbit serum to looped/cyclic peptides of protein N of SARS-CoV Urbani (Rabbit serum looped peptides): unit not given here

Row | Sequence | Binding of antibody 03-018 to linear peptides of the N protein of SARS-CoV Urbani [1] | Binding of antibody 03-018 to looped/cyclic peptides of the N protein of SARS-CoV Urbani [1] | Binding of serum 1a to linear peptides of protein N of SARS-CoV Urbani [2] | Binding of serum 1a to looped/cyclic peptides of protein N of SARS-CoV Urbani [2] | Binding of serum 1b to linear peptides of protein N of SARS-CoV Urbani [2] | Binding of serum 1b to looped/cyclic peptides of protein N of SARS-CoV Urbani [2] | Binding of serum 2 to linear peptides of protein N of SARS-CoV Urbani [2] | Binding of serum 2 to looped/cyclic peptides of protein N of SARS-CoV Urbani [2] | Binding of serum 6 to linear peptides of protein N of SARS-CoV Urbani [2] | Binding of serum 6 to looped/cyclic peptides of protein N of SARS-CoV Urbani [2] | Binding of serum 37 to linear peptides of protein N of SARS-CoV Urbani [2] | Binding of serum 37 to looped/cyclic peptides of protein N of SARS-CoV Urbani [2] | Binding of serum 62 to linear peptides of protein N of SARS-CoV Urbani [2] | Binding of serum 62 to looped/cyclic peptides of protein N of SARS-CoV Urbani [2] | Binding of serum London to linear peptides of protein N of SARS-CoV Urbani [2] | Binding of serum London to looped/cyclic peptides of protein N of SARS-CoV Urbani [2] | Binding of serum SARS-green to looped/cyclic peptides of protein N of SARS-CoV Urbani [2] | Binding of serum SARS-yellow to looped/cyclic peptides of protein N of SARS-CoV Urbani [2] | Binding of a rabbit serum to linear peptides of protein N of SARS-CoV Urbani (Rabbit serum linear peptides) [4] | Binding of a rabbit serum to looped/cyclic peptides of protein N of SARS-CoV Urbani (Rabbit serum looped peptides) [4] | other results
1 | TEPKKDKKKKTDEAQ | 0.1 | 0.2 | 0.2 | 0.2 | 0.1 | 0.1 | 2.5 | 1.9 | 0.2 | 0.1 | 0.7 | 0.4 | 0.7 | 0.3 | 0.6 | 0.3 | 0.0 | 0.2 | 0.2 | 0.3 | Binding of serum SARS-green to linear peptides of protein N of SARS-CoV Urbani [2]: 0.5; Binding of serum SARS-yellow to linear peptides of protein N of SARS-CoV Urbani [2]: 0.6; Control Serum Blood-Bank Looped peptides [3]: 0.5; Control serum Blood-bank linear peptides [3]: 0.7; Control serum LUMC linear peptides [3]: 0.8; Control serum LUMC looped peptides [3]: 0.4
2 | TRRVRGGDGKMKELS | 0.1 | 0.2 | 0.3 | 0.2 | 0.2 | 0.1 | 0.3 | 0.2 | 0.3 | 0.2 | 0.7 | 0.4 | 0.8 | 0.3 | 0.5 | 0.3 | 0.0 | 0.2 | 0.2 | 0.3 | Binding of serum SARS-green to linear peptides of protein N of SARS-CoV Urbani [2]: 0.3; Binding of serum SARS-yellow to linear peptides of protein N of SARS-CoV Urbani [2]: 0.7; Binding of Control Serum Blood-Bank to Looped peptides [3]: 0.5; Binding of Control serum Blood-bank to linear peptides [3]: 0.7; Binding of Control serum LUMC to linear peptides [3]: 0.8; Binding of Control serum LUMC to looped peptides [3]: 0.5
3 | KKKKTDEAQPLPQRQ | 0.1 | 0.2 | 0.3 | 0.2 | 0.1 | 0.1 | 0.3 | 0.3 | 0.3 | 0.1 | 0.7 | 0.4 | 0.7 | 0.3 | 0.8 | 0.3 | 0.1 | 0.2 | 0.2 | 0.1 | Binding of serum SARS-green to linear peptides of protein N of SARS-CoV Urbani [2]: 0.6; Binding of serum SARS-yellow to linear peptides of protein N of SARS-CoV Urbani [2]: 0.9; Control Serum Blood-Bank Looped peptides [3]: 0.6; Control serum Blood-bank linear peptides [3]: 1.0; Control serum LUMC linear peptides [3]: 0.9; Control serum LUMC looped peptides [3]: 0.4
4 | NQNGGRNGARPKQRR | 0.2 | 0.2 | 0.2 | 0.2 | 0.1 | 0.1 | 0.3 | 0.2 | 0.3 | 0.2 | 0.8 | 0.4 | 0.7 | 0.3 | 0.5 | 0.3 | 0.2 | 0.3 | 0.5 | 1.1 | Binding of serum SARS-green to linear peptides of protein N of SARS-CoV Urbani [2]: 0.5; Binding of serum SARS-yellow to linear peptides of protein N of SARS-CoV Urbani [2]: 0.6; Binding of Control Serum Blood-Bank to Looped peptides [3]: 0.6; Binding of Control serum Blood-bank to linear peptides [3]: 0.7; Binding of Control serum LUMC to linear peptides [3]: 0.8; Binding of Control serum LUMC to looped peptides [3]: 0.5
5 | QTQGNFGDQDLIRQG | 0.1 | 0.2 |  | 0.5 |  | 0.4 |  | 0.5 |  | 0.3 |  | 0.9 |  | 0.9 |  | 0.6 | 0.4 | 0.8 | 0.1 | 0.6 | Recognition of the peptide by sera of SARS-CoV infected individuals, and form (linear, looped/cyclic) in which it is recognized [2]: recognized in linear form; Binding of Control Serum Blood-Bank to Looped peptides [3]: 0.8; Binding of Control serum Blood-bank to linear peptides [3]: 0.9; Binding of Control serum LUMC to linear peptides [3]: 0.9; Binding of Control serum LUMC to looped peptides [3]: 0.7
